Measured values published in ChEMBL document CHEMBL1201862, “PubChem BioAssay data set” (2004).
Active and inactive are the calls of the source.

How the values were obtained:
[1] = target: T1, Rac GTPase-activating protein 1 (Homo sapiens, UniProt Q9H0H5); assay: blockers of MgcRacGAP-driven Rac1 GTP hydrolysis – biochemical, ADP Hunter fluorescence, primary and confirmatory, confirmation (AID 624330); type: functional
T1 sequence (Q9H0H5 whole entry): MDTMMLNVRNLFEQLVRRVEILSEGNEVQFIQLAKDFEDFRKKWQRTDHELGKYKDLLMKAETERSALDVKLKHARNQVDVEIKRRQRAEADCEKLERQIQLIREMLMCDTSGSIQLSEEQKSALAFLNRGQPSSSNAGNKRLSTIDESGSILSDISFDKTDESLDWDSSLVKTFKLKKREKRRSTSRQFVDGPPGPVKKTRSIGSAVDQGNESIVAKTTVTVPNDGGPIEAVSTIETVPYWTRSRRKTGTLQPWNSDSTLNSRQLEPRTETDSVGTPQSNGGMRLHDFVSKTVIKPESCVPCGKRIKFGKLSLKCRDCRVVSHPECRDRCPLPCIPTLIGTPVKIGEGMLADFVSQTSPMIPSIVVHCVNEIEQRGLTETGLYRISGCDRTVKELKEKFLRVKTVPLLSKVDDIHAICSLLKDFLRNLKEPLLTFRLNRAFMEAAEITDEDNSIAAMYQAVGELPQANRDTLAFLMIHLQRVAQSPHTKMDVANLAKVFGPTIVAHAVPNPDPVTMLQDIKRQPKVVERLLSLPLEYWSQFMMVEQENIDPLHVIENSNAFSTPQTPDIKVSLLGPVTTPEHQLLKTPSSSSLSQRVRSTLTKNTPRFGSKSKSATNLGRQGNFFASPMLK

[2] = target: T2, Heat shock factor protein 1 (Mus musculus, UniProt P38532); assay: decrease of HSF1-responsive luciferase luminescence – cell-based, NIH3T3, dose retest, confirmation (AID 2382); type: functional;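 also: NIH3T3 fibroblasts with HSF1-driven luciferase reporter stressed by proteasome inhibitor MG132; luminescence from HSF1-driven luciferase expression after 8 hours of MG132 stress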
T2 sequence (P38532 whole entry): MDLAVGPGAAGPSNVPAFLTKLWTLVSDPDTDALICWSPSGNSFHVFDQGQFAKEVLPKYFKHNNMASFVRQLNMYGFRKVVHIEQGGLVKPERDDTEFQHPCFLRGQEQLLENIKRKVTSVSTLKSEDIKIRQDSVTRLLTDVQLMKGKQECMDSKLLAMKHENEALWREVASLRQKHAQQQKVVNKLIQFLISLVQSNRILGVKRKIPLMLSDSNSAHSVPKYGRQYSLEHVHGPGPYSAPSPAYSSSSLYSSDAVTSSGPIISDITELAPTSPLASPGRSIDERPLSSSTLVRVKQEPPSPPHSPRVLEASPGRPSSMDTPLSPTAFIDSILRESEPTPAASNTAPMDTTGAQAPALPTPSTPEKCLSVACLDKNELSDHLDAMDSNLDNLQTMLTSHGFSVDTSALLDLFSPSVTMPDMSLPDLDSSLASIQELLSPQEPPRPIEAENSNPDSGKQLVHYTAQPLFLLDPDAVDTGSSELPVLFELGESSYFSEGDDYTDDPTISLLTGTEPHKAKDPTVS

[3] = viability of PTEN-deleted HCT116 cells – cell-based, HCT116 PTEN knockout, dose response (AID 1047); type: functional;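 also: HCT116 colon tumor cells with PTEN knocked out; cells exposed to compound for 60 hours before readout; potency for loss of cell viability measured by luminescence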
[4] = viability of HCT116 lacking mutant beta-catenin – cell-based, human colon tumor, dose response (AID 1045); type: functional;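 also: HCT116 colon tumor cells with beta catenin knocked out; cells exposed to compound for 60 hours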
Cytochrome P450 2C19 = Cytochrome P450 2C19 (Homo sapiens, UniProt P33261); assay: Cytochrome panel assay with activity outcomes. Panel member name: p450-cyp2c19 Compounds with AC50 equal or less than 10 uM are considered active; type: functional; details: read-out: AC50
[5] = target: T3, RNA-binding protein pos-1 (Caenorhabditis elegans, UniProt G5EF15); assay: disruptors of C. elegans POS-1 RNA interaction – biochemical, fluorescence polarization, dose response (AID 1964);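 also: purified POS-1 fused to maltose binding protein made in E. coli; potency of compounds blocking POS-1 binding to fluorescent RNA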
T3 sequence (G5EF15 whole entry): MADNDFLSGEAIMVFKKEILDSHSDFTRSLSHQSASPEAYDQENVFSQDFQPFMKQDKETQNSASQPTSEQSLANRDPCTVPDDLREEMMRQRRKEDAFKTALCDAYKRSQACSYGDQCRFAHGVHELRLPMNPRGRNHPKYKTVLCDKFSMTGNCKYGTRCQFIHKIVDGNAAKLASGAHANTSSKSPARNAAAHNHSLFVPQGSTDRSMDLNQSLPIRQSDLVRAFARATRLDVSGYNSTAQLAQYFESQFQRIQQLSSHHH

[6] = target: T4, Zinc finger protein mex-5 (Caenorhabditis elegans, UniProt Q9XUB2); assay: potency of MEX-5 RNA-binding blockers – biochemical, C. elegans, fluorescence polarization, dose response (AID 1960)
T4 sequence (Q9XUB2 whole entry): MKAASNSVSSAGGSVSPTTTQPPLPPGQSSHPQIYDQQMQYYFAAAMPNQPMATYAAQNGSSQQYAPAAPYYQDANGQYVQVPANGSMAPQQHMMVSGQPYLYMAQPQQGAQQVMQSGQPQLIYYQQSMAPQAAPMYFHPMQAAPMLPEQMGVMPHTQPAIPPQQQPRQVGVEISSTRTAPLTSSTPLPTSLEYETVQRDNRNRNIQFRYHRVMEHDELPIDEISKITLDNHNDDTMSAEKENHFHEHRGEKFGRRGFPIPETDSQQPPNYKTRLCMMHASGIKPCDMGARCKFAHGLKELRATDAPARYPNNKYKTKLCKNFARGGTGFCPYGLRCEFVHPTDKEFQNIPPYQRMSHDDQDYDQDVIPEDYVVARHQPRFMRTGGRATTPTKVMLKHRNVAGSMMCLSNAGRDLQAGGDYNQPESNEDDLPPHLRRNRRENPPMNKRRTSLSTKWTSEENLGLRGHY

[7] = tested on: Streptococcus sp. 'group A'; assay: Streptococcus pyogenes SK(-)GAS viability under kanamycin – luminescence, BacTiterGlo, confirmation, counter-screen for streptokinase expression inhibitor project, dose response (AID 1900); type: functional, organism-based
Streptokinase A = target: T5, Streptokinase A (Streptococcus pyogenes serotype M1, UniProt P10520); assay: viability-normalized secreted streptokinase activity reduction – plasminogen activation absorbance, OD405, dose response (AID 1914); type: functional, Streptococcus pyogenes M1 GAS;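 also: secreted streptokinase activity via plasminogen activation per viability signal from cell pellet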
T5 sequence (P10520 whole entry): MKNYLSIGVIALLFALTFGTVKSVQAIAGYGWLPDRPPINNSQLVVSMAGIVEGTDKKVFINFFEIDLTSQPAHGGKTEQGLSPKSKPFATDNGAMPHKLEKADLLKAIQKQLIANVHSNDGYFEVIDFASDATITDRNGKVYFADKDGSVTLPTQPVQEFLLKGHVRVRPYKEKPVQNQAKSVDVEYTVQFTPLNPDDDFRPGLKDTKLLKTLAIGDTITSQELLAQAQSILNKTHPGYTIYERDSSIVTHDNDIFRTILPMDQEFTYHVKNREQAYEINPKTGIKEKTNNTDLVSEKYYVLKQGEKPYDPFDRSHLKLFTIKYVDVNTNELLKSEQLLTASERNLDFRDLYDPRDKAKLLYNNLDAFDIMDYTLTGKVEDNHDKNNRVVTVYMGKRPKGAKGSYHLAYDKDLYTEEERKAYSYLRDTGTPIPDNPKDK

Streptococcus = assay: GAS UMAA2166 growth inhibition – luminescence, BacTiterGlo, counter-screen for streptokinase expression inhibitor project, dose response (AID 1915); type: functional, organism-based;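 also: potency for reduction of bacterial viability or growth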
H9c2 = assay: cells; type: functional, cell-based; details: Rattus norvegicus, H9c2, Myocardium
Cytochrome P450 3A4 = Cytochrome P450 3A4 (Homo sapiens, UniProt P08684);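 also: CYP3A4 tested as one member of a cytochrome P450 panel screen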
[8] = NIH-3T3 fibroblast cytotoxicity, dose response, cytotoxicity control, cell-based, fluorescence, Alamar Blue, secondary assay (AID 2327); type: functional;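 also: NIH-3T3 mouse fibroblasts cultured with fluconazole at 8 µg/mL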
[9] = fluconazole-exposed Candida albicans growth modulators – fluorescence, retest, confirmation (AID 2467); type: functional, cell-based
[10] = reduction of Shn3 3'UTR-driven luciferase in osteoblasts – cell-based, Clone20 osteoblasts, firefly luciferase, cherry-picked, dose response (AID 624132); type: functional;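 also: firefly luciferase luminescence from reporter carrying the Shn3 3'UTR in osteoblasts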
[11] = loss of viability in HepG2 cells – cell-based, CellTiter-Glo, cherry-picked, cytotoxicity control for Shn3 inhibitor project, dose response (AID 624134); type: functional
[12] = non-specific 3'UTR reporter inhibition in Clone20-Shn3RL – cell-based, Renilla luciferase, cherry-picked, counter-screen for Shn3 inhibitor project, dose response (AID 624133); type: functional

Sequence of Cytochrome P450 3A4 (P08684 whole entry): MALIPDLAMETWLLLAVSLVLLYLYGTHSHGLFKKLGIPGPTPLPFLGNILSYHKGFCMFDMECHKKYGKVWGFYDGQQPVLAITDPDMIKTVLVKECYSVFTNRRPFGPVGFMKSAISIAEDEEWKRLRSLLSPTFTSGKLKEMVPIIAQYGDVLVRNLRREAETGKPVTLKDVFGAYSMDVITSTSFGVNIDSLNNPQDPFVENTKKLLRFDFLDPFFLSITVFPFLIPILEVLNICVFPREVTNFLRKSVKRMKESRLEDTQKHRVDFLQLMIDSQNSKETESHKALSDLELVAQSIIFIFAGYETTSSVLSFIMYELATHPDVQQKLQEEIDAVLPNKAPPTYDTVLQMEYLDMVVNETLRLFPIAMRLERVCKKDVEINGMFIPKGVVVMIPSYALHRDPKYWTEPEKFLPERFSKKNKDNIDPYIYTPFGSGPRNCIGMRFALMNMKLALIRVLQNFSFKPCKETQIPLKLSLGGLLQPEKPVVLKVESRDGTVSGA
Sequence of Cytochrome P450 2C19 (P33261 whole entry, the tested form may be a part): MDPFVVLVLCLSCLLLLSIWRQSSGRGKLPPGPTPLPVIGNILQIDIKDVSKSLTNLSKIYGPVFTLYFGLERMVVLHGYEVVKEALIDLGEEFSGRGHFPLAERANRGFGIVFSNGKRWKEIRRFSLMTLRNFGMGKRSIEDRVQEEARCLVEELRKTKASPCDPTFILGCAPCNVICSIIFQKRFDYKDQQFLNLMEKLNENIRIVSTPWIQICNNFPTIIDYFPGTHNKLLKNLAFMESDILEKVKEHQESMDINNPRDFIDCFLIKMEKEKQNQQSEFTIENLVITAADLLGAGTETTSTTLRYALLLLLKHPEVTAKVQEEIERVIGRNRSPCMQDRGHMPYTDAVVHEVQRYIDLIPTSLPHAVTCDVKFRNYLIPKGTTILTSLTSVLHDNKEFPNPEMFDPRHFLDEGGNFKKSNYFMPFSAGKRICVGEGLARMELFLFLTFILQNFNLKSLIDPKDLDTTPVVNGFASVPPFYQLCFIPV

## c1ccc(CNc2ccc(N3CCOCC3)cc2)cc1
[1]
  IC50: 8.18 µM (active)

## Cc1nc2c(ncn2-c2ccccc2)c(=O)n1NC(=O)CN1CCOCC1
[2]
  EC50: > 195 µM (not active)

## CCOC(=O)c1ccc(NC(=O)CC2COc3ccccc3O2)cc1 (stereo not given)
[2]
  EC50: > 195 µM (not active)

## CC(=O)/C=C/c1ccc2ccccc2n1
[3]
  EC50: 2.58 µM (active)
[4]
  EC50: 2.42 µM (active)
Cytochrome P450 2C19
  AC50: 39.8 µM (inconclusive)

## Cc1sc(-c2ccccn2)nc1OC(=O)c1cccc(Cl)c1Cl
[5]
  EC50: > 300 µM (not active)
[6]
  EC50: > 300 µM (not active)

## COc1ccccc1/C=C/CN1CCC(Oc2cc(C(=O)NC3CC3)ccc2OC)CC1
[2]
  EC50: > 195 µM (not active)

## CC(C)CCOc1ccc(-c2c(=O)n(OCc3ccc([N+](=O)[O-])cc3)c3ccccc3[n+]2[O-])cc1
[3]
  EC50: 20.7 µM (active)
[4]
  EC50: 28.3 µM (active)

## O=C(O)CSc1ccccc1C(=O)O
[2]
  EC50: > 195 µM (not active)

## COCCN1CCC(CNCc2c(C(=O)N3CCCCC3)nc3c(C)cccn23)C1 (stereo not given)
[5]
  EC50: > 300 µM (not active)
[6]
  EC50: > 300 µM (not active)

## CC1CN(c2nc(-c3ccc(Br)cc3)nnc2-c2ccccc2)CC(C)N1 (stereo not given)
[3]
  EC50: 11.3 µM (active)
[4]
  EC50: 10 µM (active)

## COc1cc(NC(=O)c2cc3nc(-c4ccccc4)cc(-c4ccccc4)n3n2)cc(OC)c1OC
[7]
  EC50: 11.7 µM (active)
Streptokinase A
  EC50: > 150 µM (not active)
Streptococcus
  EC50: > 150 µM (not active)
H9c2
  IC50: 8.62 µM (active)
Cytochrome P450 3A4
  AC50: 10 µM (inconclusive)

## CCOc1ccccc1NC(=O)C(NCCN(C)C)c1ccccc1 (stereo not given)
[1]
  IC50: 91.1 µM (active)

## O=C(COC(=O)CCc1nc(O)c2ccccc2n1)Nc1c(Cl)cccc1C(F)(F)F
[2]
  EC50: > 195 µM (not active)
H9c2
  IC50: > 79 µM (inactive)

## Cc1ccc(CN2CCN(CC3CC4C=CC3C4)CC2)cc1 (stereo not given)
[1]
  IC50: 113 µM (active)

## O=C(COC(=O)C1CCCC1)Nc1ncc(Cl)cc1Cl
[5]
  EC50: > 300 µM (not active)
[6]
  EC50: 34.3 µM (active)

## CCOC(=O)c1cnc(-n2cc(C)cn2)nc1Nc1ccccc1OCC
[8]
  EC50: 44.2 µM (active)
[7]
  EC50: 4.47 µM (active)
Streptokinase A
  EC50: > 150 µM (not active)
[9]
  EC50: > 38 µM (not active)
Streptococcus
  EC50: 6.46 µM (active)

## COc1cccc(-n2c(N)c(-c3nc4ccccc4[nH]3)sc2=S)c1
[2]
  EC50: > 195 µM (not active)

## CCCOc1ccc(C(=O)C2=C(O)C(=O)N(CCN(C)C)C2c2ccc(O)c(OC)c2)cc1 (stereo not given)
[2]
  EC50: > 195 µM (not active)

## C=CCc1cccc(/C=N/c2cc(Br)ccc2O)c1O
[1]
  IC50: 14.7 µM (active)

## Cc1cc(Cl)ccc1OC(C)C(=O)NC(C)C1CCCO1 (stereo not given)
[2]
  EC50: > 195 µM (not active)

## Cc1cc2cc(CN(CC3CCCO3)C(S)=Nc3ccccc3)c(O)nc2cc1C (stereo not given)
[3]
  EC50: 4.38 µM (active)
[4]
  EC50: 5.3 µM (active)
[10]
  AC50: 2.91 µM (active)
[11]
  AC50: 48.9 µM (active)
[12]
  AC50: 9.59 µM (active)

## O=C(Nc1ccnn1C1CCN(CC2CC=CCC2)CC1)c1ccccc1 (stereo not given)
[5]
  EC50: 43.2 µM (active)
[6]
  EC50: 52.3 µM (active)

## CCc1sc(C(=O)Nc2nccs2)cc1C
[7]
  EC50: > 150 µM (not active)
Streptokinase A
  EC50: > 150 µM (not active)
Streptococcus
  EC50: > 150 µM (not active)

## COc1cc(C(=O)N/N=C/c2ccc(OC(=O)c3ccccc3Cl)c(OC)c2)ccc1O
[7]
  EC50: 6.17 µM (active)
Streptokinase A
  EC50: > 150 µM (not active)
Streptococcus
  EC50: 8.59 µM (active)

## Cc1cc(N2CCC(C)CC2)n2ncc(-c3ccccc3)c2n1
[2]
  EC50: < 0.16 µM (active)

## COc1cccc(CC(=O)OCC(=O)Nc2nnc(-c3ccccc3)o2)c1
[7]
  EC50: 7.82 µM (active)
Streptokinase A
  EC50: > 150 µM (not active)
Streptococcus
  EC50: > 150 µM (not active)

## Cc1ccc(C)c(C(=O)COc2ccccc2[N+](=O)[O-])c1
[3]
  EC50: 10.2 µM (active)
[4]
  EC50: 9.49 µM (active)
